This note sets out measurements from patent US12655127B2, “Fused ring compound as Wee-1 inhibitor” (WIGEN BIOMEDICINE TECHNOLOGY (SHANGHAI) CO., LTD., priority 2021, dated 2026).

The target in assay [1] is recombinant protein Wee-1 (Homo sapiens, UniProt P30291). Briefly: Inhibition of enzymatic activity of recombinant protein Wee-1 (HTRF). Type of assay: biochemical. In short, it runs like this:
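Serially diluted compounds (up to 200 nM, 1:5) preincubated with recombinant Wee-1 in kinase buffer 30 min at 37° C, then Fluorescein-PolyGAT, ATP and substrate added; 90 min at room temperature. HTRF detection after 60 min (ex 340 nm, em 495/520 nm); 520/495 ratio versus DMSO gave % inhibition and IC50.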

Assay [2] has as its system MIA PaCa-2 cells. Briefly: In-vitro anti-proliferative activity on MIA PaCa-2 cells. It counts as cell-based. Conditions: Homo sapiens, 72 h after dosing, intracellular ATP content. Here is the method:
MIA PaCa-2 cells were seeded on a 384-well plate at 3000 cells/well. After overnight adherence culture, DMSO or the compounds serially diluted 1:5 from 5 μM were added. The viability was assessed 72 h after dosing by measuring the intracellular ATP content. The inhibition percentage of viable cells by the compounds was calculated by comparing with the DMSO group, and the IC50 value was calculated.

Assay [3] has as its system MIA PaCa-2 cells. Briefly: In-vitro anti-proliferative activity in combination with gemcitabine on MIA PaCa-2 cells. Conditions: with 20 nM gemcitabine, 72 h after dosing, intracellular ATP content. Type of assay: cell-based. Here is the method:
MIA PaCa-2 cells were seeded on a 384-well plate at 3000 cells/well, and 20 nM gemcitabine was added. After overnight adherence culture, DMSO or the compounds serially diluted 1:5 from 100 nM were added. The viability was assessed 72 h after dosing by measuring the intracellular ATP content. The inhibition percentage of viable cells by the compounds was calculated by comparing with the DMSO group, and the IC50 value was calculated.

The subject of assay [4] is HT29 subcutaneous xenograft tumor. Briefly: Mouse HT29 subcutaneous xenograft tumor model. Type of assay: in vivo. Conditions: for TGI: day 18, nude mouse HT29 xenograft; for Tumor volume on day 1 of treatment (mm^3) / Tumor volume on day 18 of treatment (mm^3): nude mouse HT29 xenograft. Here is the method: HT29 is a colon cancer cell. Each nude mouse was grafted subcutaneously with 5×10^6 HT29 cells. When the tumor grew to 100-200 mm^3, the compound was administered orally once a day alone or in combination with 15 mg/kg of gemcitabine injected intraperitoneally once a week, and the tumor volume was measured twice a week and at the end of treatment. Tumor growth inhibition of the compound was calculated according to the following equation: tumor growth inhibition (TGI)=1−(tumor volume on day 18 in treatment group−tumor volume on day 1 in treatment group)/(tumor volume on day 18 in vehicle control group−tumor volume on day 1 in treatment group).

Setting [5] is: 30 mg/kg orally once a day in combination with 15 mg/kg of gemcitabine i.p. once a week.
Setting [6] is: monotherapy, 30 mg/kg orally once a day.

Structures are written as SMILES.

recombinant protein Wee-1, sequence (P30291 whole entry): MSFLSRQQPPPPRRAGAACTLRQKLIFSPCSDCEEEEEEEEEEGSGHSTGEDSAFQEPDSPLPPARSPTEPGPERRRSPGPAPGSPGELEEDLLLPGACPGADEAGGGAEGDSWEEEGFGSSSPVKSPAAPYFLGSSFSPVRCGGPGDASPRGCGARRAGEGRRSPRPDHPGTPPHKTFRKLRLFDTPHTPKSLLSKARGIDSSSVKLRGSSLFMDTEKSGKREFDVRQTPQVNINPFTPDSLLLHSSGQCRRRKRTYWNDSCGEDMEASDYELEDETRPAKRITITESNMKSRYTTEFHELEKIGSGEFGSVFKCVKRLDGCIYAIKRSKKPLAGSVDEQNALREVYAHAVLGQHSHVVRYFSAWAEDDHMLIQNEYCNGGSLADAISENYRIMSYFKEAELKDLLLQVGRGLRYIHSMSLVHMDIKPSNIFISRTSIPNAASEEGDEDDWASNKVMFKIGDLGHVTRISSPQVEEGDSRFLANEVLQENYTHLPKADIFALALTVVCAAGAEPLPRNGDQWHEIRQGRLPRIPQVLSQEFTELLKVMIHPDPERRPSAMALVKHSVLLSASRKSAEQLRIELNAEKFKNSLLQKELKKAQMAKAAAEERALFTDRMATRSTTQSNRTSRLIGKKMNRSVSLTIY

As for `CN1Cc2cc(Nc3ncc(C#N)c(Nc4cccc(N=S(C)(C)=O)n4)n3)cc3c2[C@H](CCC3)C1` (single isomer, unassigned) [Compound 2], the IC50 (in general, the concentration that inhibits the measured activity by half) in assay [1] was at most 10 nM; in the assay on MIA PaCa-2 cells [2], 259 nM; in the assay on MIA PaCa-2 cells [3], 0.245 nM. Moreover, the TGI in assay [4] (setting [5]) amounted to 109%; in assay [4] (setting [6]), 99%. Further, the “Tumor volume on day 1 of treatment (mm^3)” value in assay [4] (setting [5]) and in assay [4] (setting [6]) was 112 mm^3 each time. Besides, the “Tumor volume on day 18 of treatment (mm^3)” value in assay [4] (setting [5]) amounted to 11 mm^3; in assay [4] (setting [6]), 115 mm^3.
